Data published in ChEMBL document CHEMBL1144109, “Structures and cytotoxicity relationship of isoaaptamine and aaptamine derivatives” (J Nat Prod, 1999).
≈ marks a conversion by molar mass, not a printed value.

What was measured:
Type in all cases: functional, cell-based
[1] = Cytotoxicity against human KB16 cells after 3 days by MTT assay; details: KB16, 72 h
[2] = test system: P388; assay: Cytotoxicity against mouse P388 cells after 3 days by MTT assay; details: P388, 72 h
[3] = test system: A549; assay: Cytotoxicity against human A549 cells after 6 days by MTT assay; details: A549, 144 h
[4] = test system: HT-29; assay: Cytotoxicity against human HT-29 cells after 6 days by MTT assay; details: HT-29, 144 h

In the case of CCCCCCCCC(=O)Oc1c(OC)cc2ccnc3c2c1N(C)C=C3, the IC50 [1] is reported as 33 µg/mL (≈ 89.6 µM), the IC50 [2] is reported as 0.04 µg/mL (≈ 0.109 µM) and the IC50 [3] is reported as 12 µg/mL (≈ 32.6 µM). For the same molecule, the IC50 [4] was 3 µg/mL (≈ 8.14 µM).

Molecule CCCCCCCCCC(=O)Oc1c(OC)cc2ccnc3c2c1N(C)C=C3 has an IC50 [1] of 20 µg/mL (≈ 52.3 µM), an IC50 [2] of 0.03 µg/mL (≈ 0.0784 µM) and an IC50 [3] of 6.1 µg/mL (≈ 15.9 µM). For the same molecule, the IC50 [4] was 2.5 µg/mL (≈ 6.54 µM).

CCCCCCCCCCCC(=O)Oc1c(OC)cc2ccnc3c2c1N(C)C=C3 gave an IC50 [1] of 20 µg/mL (≈ 48.7 µM), an IC50 [2] of 0.03 µg/mL (≈ 0.0731 µM) and an IC50 [3] of 3.7 µg/mL (≈ 9.01 µM). The IC50 [4] was 2.5 µg/mL (≈ 6.09 µM).

Molecule COc1cc2c3c(ccnc3c1OC)N(C(C)=O)CC2 has an IC50 [1] of 32 µg/mL (≈ 118 µM), an IC50 [2] of 2.6 µg/mL (≈ 9.55 µM) and an IC50 [3] of 20 µg/mL (≈ 73.4 µM). The IC50 [4] was 17 µg/mL (≈ 62.4 µM).

With CCCCCC(=O)N1CCc2cc(OC)c(OC)c3nccc1c23 the IC50 [1] was over 50 µg/mL, the IC50 [2] was 3.7 µg/mL (≈ 11.3 µM) and the IC50 [3] was over 50 µg/mL. It also gave an IC50 [4] of over 50 µg/mL.

With COc1cc2ccnc3c2c(c1OC(C)=O)N(C)C=C3 the IC50 [1] was over 50 µg/mL, the IC50 [2] was 4.2 µg/mL (≈ 15.5 µM) and the IC50 [3] was over 50 µg/mL. For the same molecule, the IC50 [4] was over 50 µg/mL.

In the case of CCCCCCCCCCCCCCCCCC(=O)N1CCc2cc(OC)c(OC)c3nccc1c23, the IC50 [1] is reported as 20 µg/mL (≈ 40.3 µM), the IC50 [2] is reported as 2.7 µg/mL (≈ 5.44 µM) and the IC50 [3] is reported as over 50 µg/mL. For the same molecule, the IC50 [4] was over 50 µg/mL.

For CCC(=O)Oc1c(OC)cc2ccnc3c2c1N(C)C=C3, the IC50 [1] was 28 µg/mL (≈ 98.5 µM), the IC50 [2] was 1.4 µg/mL (≈ 4.92 µM) and the IC50 [3] was 18 µg/mL (≈ 63.3 µM). The IC50 [4] was 13 µg/mL (≈ 45.7 µM).

With CCCCCC(=O)Oc1c(OC)cc2ccnc3c2c1N(C)C=C3 the IC50 [1] was 33 µg/mL (≈ 101 µM), the IC50 [2] was 0.7 µg/mL (≈ 2.14 µM) and the IC50 [3] was 13 µg/mL (≈ 39.8 µM). The IC50 [4] was 12 µg/mL (≈ 36.8 µM).

For CCCCCCCC(=O)Oc1c(OC)cc2ccnc3c2c1N(C)C=C3, the IC50 [1] was 15 µg/mL (≈ 42.3 µM), the IC50 [2] was 1.5 µg/mL (≈ 4.23 µM) and the IC50 [3] was 14 µg/mL (≈ 39.5 µM). For the same molecule, the IC50 [4] was 12 µg/mL (≈ 33.9 µM).

Work on CCCCCCC(=O)Oc1c(OC)cc2ccnc3c2c1N(C)C=C3 yielded an IC50 [1] of 38 µg/mL (≈ 112 µM), an IC50 [2] of 0.7 µg/mL (≈ 2.06 µM) and an IC50 [3] of 11 µg/mL (≈ 32.3 µM). For the same molecule, the IC50 [4] was 13 µg/mL (≈ 38.2 µM).

CCCCC(=O)Oc1c(OC)cc2ccnc3c2c1N(C)C=C3 gave an IC50 [1] of 35 µg/mL (≈ 112 µM), an IC50 [2] of 1.8 µg/mL (≈ 5.76 µM) and an IC50 [3] of 13 µg/mL (≈ 41.6 µM). It also gave an IC50 [4] of 9 µg/mL (≈ 28.8 µM).

For CCCCCCCCCCCCCCCCCC(=O)Oc1c(OC)cc2ccnc3c2c1N(C)C=C3, the IC50 [1] was over 50 µg/mL, the IC50 [2] was 1.1 µg/mL (≈ 2.22 µM) and the IC50 [3] was over 50 µg/mL. It also gave an IC50 [4] of 21 µg/mL (≈ 42.4 µM).

CCCCCCCCCCCC(=O)N1CCc2cc(OC)c(OC)c3nccc1c23 showed an IC50 [1] of 7.8 µg/mL (≈ 18.9 µM), an IC50 [2] of 0.1 µg/mL (≈ 0.242 µM) and an IC50 [3] of 5.6 µg/mL (≈ 13.6 µM). It also gave an IC50 [4] of 9.6 µg/mL (≈ 23.3 µM).

Molecule CCCCCCCCCCCCCC(=O)Oc1c(OC)cc2ccnc3c2c1N(C)C=C3 has an IC50 [1] of 3.3 µg/mL (≈ 7.52 µM), an IC50 [2] of 0.3 µg/mL (≈ 0.684 µM) and an IC50 [3] of 5.6 µg/mL (≈ 12.8 µM). It also gave an IC50 [4] of 2.7 µg/mL (≈ 6.16 µM).

For CCCCCCCCCCCCCCCC(=O)Oc1c(OC)cc2ccnc3c2c1N(C)C=C3, the IC50 [1] was 8 µg/mL (≈ 17.1 µM), the IC50 [2] was 0.1 µg/mL (≈ 0.214 µM) and the IC50 [3] was 7.3 µg/mL (≈ 15.6 µM). It also gave an IC50 [4] of 9 µg/mL (≈ 19.3 µM).

COc1cc2ccnc3c2c(c1OC)NC=C3 [AAPTAMINE] gave an IC50 [1] of 3.9 µg/mL (≈ 17.1 µM), an IC50 [2] of 0.6 µg/mL (≈ 2.63 µM) and an IC50 [3] of 2.8 µg/mL (≈ 12.3 µM). The IC50 [4] was 6.9 µg/mL (≈ 30.2 µM).

In the case of COC1=Cc2ccnc3c2C1=C(OC)NC=C3 [AAPTOSINE], the IC50 [3] is reported as over 50 µg/mL and the IC50 [4] is reported as over 50 µg/mL.

COC1=Cc2ccnc3ccnc(c23)C1=O [DEMETHYLOXY-AAPTAMINE] gave an IC50 [1] of 0.1 µg/mL (≈ 0.471 µM), an IC50 [2] of 0.01 µg/mL (≈ 0.0471 µM) and an IC50 [3] of 0.3 µg/mL (≈ 1.41 µM).

Work on COc1cc2c3c(ccnc3c1OC)NCC2 [DIHYDROAAPTAMINE] yielded an IC50 [1] of 22 µg/mL (≈ 95.5 µM), an IC50 [2] of 1.8 µg/mL (≈ 7.82 µM) and an IC50 [3] of 23 µg/mL (≈ 99.9 µM). It also gave an IC50 [4] of 47 µg/mL (≈ 204 µM).

With COc1cc2ccnc3c2c(c1O)N(C)C=C3 [ISOAAPTAMINE] the IC50 [1] was 0.4 µg/mL (≈ 1.75 µM), the IC50 [2] was 0.04 µg/mL (≈ 0.175 µM) and the IC50 [3] was 0.3 µg/mL (≈ 1.31 µM). For the same molecule, the IC50 [4] was 0.4 µg/mL (≈ 1.75 µM).
